This passage reports IC50 results from patent US20240092773A1, “DIHYDRO-CYCLOPENTA-ISOQUINOLINE SULFONAMIDES DERIVATIVES” (UCB Biopharma SRL, priority 2019, published 2024).

The target of this experiment is IgE-Tb binding to soluble IgE receptor FcεR1α (Y131A mutation) (Homo sapiens, UniProt P01854, N146Q/N252Q). In words: In vitro FRET assay: inhibition of binding of IgE-Tb to receptor FcεR1α-Y131A-AF488. The conditions noted are these: read-out: FRET IC50 range.
Chain of IgE-Tb binding to soluble IgE receptor FcεR1α (Y131A mutation) (P01854 whole entry N146Q/N252Q, looked up): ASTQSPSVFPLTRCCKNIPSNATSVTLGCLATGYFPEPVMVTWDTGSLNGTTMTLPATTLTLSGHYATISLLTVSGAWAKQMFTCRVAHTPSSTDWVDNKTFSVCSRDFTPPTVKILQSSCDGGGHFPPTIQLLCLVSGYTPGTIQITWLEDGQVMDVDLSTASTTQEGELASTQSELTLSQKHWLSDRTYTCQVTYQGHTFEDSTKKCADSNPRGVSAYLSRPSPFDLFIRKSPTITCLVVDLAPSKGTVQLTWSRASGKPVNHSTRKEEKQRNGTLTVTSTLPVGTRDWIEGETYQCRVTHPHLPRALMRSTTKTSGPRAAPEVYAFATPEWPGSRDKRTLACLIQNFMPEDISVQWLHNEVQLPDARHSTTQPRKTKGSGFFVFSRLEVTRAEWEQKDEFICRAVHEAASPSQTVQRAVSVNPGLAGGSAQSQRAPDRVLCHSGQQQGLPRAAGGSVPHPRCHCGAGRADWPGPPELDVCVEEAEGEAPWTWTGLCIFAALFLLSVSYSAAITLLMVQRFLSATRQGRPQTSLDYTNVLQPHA

A word on the IC50: it is the concentration that inhibits the measured activity by half. Consider `Cn1ncc2c(NC3CCc4cc(S(=O)(=O)NCC(C)(C)F)c5cc(C6CC6)ncc5c43)cncc21` (stereo not shown) [Example 43, 3-cyclopropyl-N-(2-fluoro-2-methylpropyl)-9-[(1-methylpyrazolo[3,4-c]pyridin-4-yl)amino]-8,9-dihydro-7H-cyclopenta[h]isoquinoline-5-sulfonamide], for which the IC50 was 100 to 2000 nM.
For `COc1ccnc2c1ncn2C1CCc2c1cc(S(=O)(=O)NCC(C)(C)F)c1cc(C3CC3)ncc21` (stereo not shown) [Example 1, 3-cyclopropyl-N-(2-fluoro-2-methylpropyl)-7-(7-methoxyimidazo[4,5-b]pyridin-3-yl)-8,9-dihydro-7H-cyclopenta[h]isoquinoline-5-sulfonamide] the value was 100 to 2000 nM.
For `[2H]C([2H])(NS(=O)(=O)c1cc2c(c3cnc(C4CC4)cc13)CCC2n1cnnc1NCC1CC1)C(C)C` (stereo not shown) [Example 35, 3-cyclopropyl-7-[3-(cyclopropylmethylamino)-1,2,4-triazol-4-yl]-N-(1,1-dideuterio-2-methylpropyl)-8,9-dihydro-7H-cyclopenta[h]isoquinoline-5-sulfonamide] the value was 10 to 50 nM; for `CC(C)CNS(=O)(=O)c1cc2c(c3cnc(C4CC4)cc13)C(Nc1c(Nc3cccnc3)c(=O)c1=O)CC2` (stereo not shown) [Example 78, 3-cyclopropyl-9-[[3,4-dioxo-2-(pyridin-3-ylamino)cyclobuten-1-yl]amino]-N-(2-methylpropyl)-8,9-dihydro-7H-cyclopenta[h]isoquinoline-5-sulfonamide], 50 to 100 nM; for `Cc1cc(Nc2nncn2[C@H]2CCc3c2cc(S(=O)(=O)NCC(C)(C)F)c2cc(C4CC4)ncc32)n(C)n1` (single isomer, unassigned) [Example 86, (7R*)-3-cyclopropyl-7-[3-[(2,5-dimethylpyrazol-3-yl)amino]-1,2,4-triazol-4-yl]-N-(2-fluoro-2-methylpropyl)-8,9-dihydro-7H-cyclopenta[h]isoquinoline-5-sulfonamide], 50 to 100 nM.
For `COC(=O)c1ccc(NC2CCc3cc(S(=O)(=O)NCC(C)C)c4cc(C5CC5)ncc4c32)cn1` (stereo not shown) [Example 18, methyl 5-[[3-cyclopropyl-5-(2-methylpropylsulfamoyl)-8,9-dihydro-7H-cyclopenta[h]isoquinolin-9-yl]amino]pyridine-2-carboxylate] the value was 10 to 50 nM.
On to `CC(C)(F)CNS(=O)(=O)c1cc2c(c3cnc(C4CC4)cc13)CCC2Nc1cccnc1` (stereo not shown) [Example 31, 3-cyclopropyl-N-(2-fluoro-2-methylpropyl)-7-(pyridin-3-ylamino)-8,9-dihydro-7H-cyclopenta[h]isoquinoline-5-sulfonamide], for which the half-maximal inhibitory concentration (IC50) lay within 10 to 50 nM.
On to `CCNc1nncn1C1CCc2c1cc(S(=O)(=O)NCC(C)C)c1cc(C3CC3)ncc21` (single isomer, unassigned) [Example 52, (7R*)-3-cyclopropyl-7-[3-(ethylamino)-1,2,4-triazol-4-yl]-N-(2-methylpropyl)-8,9-dihydro-7H-cyclopenta[h]isoquinoline-5-sulfonamide], for which the IC50 fell in the range of 10 to 50 nM.
For `CC1CC1C(=O)NC1CCc2cc(S(=O)(=O)NCC(C)(C)F)c3cc(C4CC4)ncc3c21` (stereo not shown) [Example 26, N-[3-cyclopropyl-5-[(2-fluoro-2-methylpropyl)sulfamoyl]-8,9-dihydro-7H-cyclopenta[h]isoquinolin-9-yl]-2-methylcyclopropane-1-carboxamide] the value was 100 to 2000 nM; for `Cc1cc(Nc2nncn2[C@@H]2CCc3c2cc(S(=O)(=O)NCC(C)C)c2cc(C4CC4)ncc32)n(C)n1` (single isomer, unassigned) [Example 87, (7R*)-3-cyclopropyl-7-[3-[(2,5-dimethylpyrazol-3-yl)amino]-1,2,4-triazol-4-yl]-N-(2-methylpropyl)-8,9-dihydro-7H-cyclopenta[h]isoquinoline-5-sulfonamide], 10 to 50 nM.
For `CC(C)(F)CNS(=O)(=O)c1cc2c(c3cnc(C4CC4)cc13)CC[C@H]2C(=O)Nc1cccnc1` (single isomer, unassigned) [Example 37, (7R*)-3-cyclopropyl-5-[(2-fluoro-2-methylpropyl)sulfamoyl]-N-pyridin-3-yl-8,9-dihydro-7H-cyclopenta[h]isoquinoline-7-carboxamide] the value was 100 to 2000 nM.
For `Cc1nnc(-c2ccc(NC3CCc4cc(S(=O)(=O)NCC(C)(C)F)c5cc(C6CC6)ncc5c43)cn2)o1` (stereo not shown) [Example 76, 3-cyclopropyl-N-(2-fluoro-2-methylpropyl)-9-[[6-(5-methyl-1,3,4-oxadiazol-2-yl)pyridin-3-yl]amino]-8,9-dihydro-7H-cyclopenta[h]isoquinoline-5-sulfonamide] the value was 100 to 2000 nM; for `CC(C)CNS(=O)(=O)c1cc2c(c3cnc(C4CC4)cc13)C(NS(C)(=O)=O)CC2` (stereo not shown) [Example 70, 3-cyclopropyl-9-(methanesulfonamido)-N-(2-methylpropyl)-8,9-dihydro-7H-cyclopenta[h]isoquinoline-5-sulfonamide], 100 to 2000 nM.
For `CC(C)(F)CNS(=O)(=O)c1cc2c(c3cnc(C4CC4)cc13)C(Nc1cncc3ccccc13)CC2` (stereo not shown) [Example 68, 3-cyclopropyl-N-(2-fluoro-2-methylpropyl)-9-(isoquinolin-4-ylamino)-8,9-dihydro-7H-cyclopenta[h]isoquinoline-5-sulfonamide], the IC50 fell in the range of 100 to 2000 nM.
The result for `CC(C)CNS(=O)(=O)c1cc2c(c3cnc(C4CC4)cc13)C(F)CC2` (stereo not shown) [Example 65, 3-cyclopropyl-9-fluoro-N-(2-methylpropyl)-8,9-dihydro-7H-cyclopenta[h]isoquinoline-5-sulfonamide] reads 100 to 2000 nM; that for `Cc1ccc(N/C(=N\C#N)NC2CCc3cc(S(=O)(=O)NCC(C)C)c4cc(C5CC5)ncc4c32)cc1` (stereo not shown) [Example 69, 2-cyano-1-[3-cyclopropyl-5-(2-methylpropylsulfamoyl)-8,9-dihydro-7H-cyclopenta[h]isoquinolin-9-yl]-3-(4-methylphenyl)guanidine], 100 to 2000 nM.
For `CC(C)CNS(=O)(=O)c1cc2c(c3cnc(C4CC4)cc13)C(Nc1nncn1-c1cncc(F)c1)CC2` (stereo not shown) [Example 5, 3-cyclopropyl-9-[[4-(5-fluoro-3-pyridyl)-1,2,4-triazol-3-yl]amino]-N-isobutyl-8,9-dihydro-7H-cyclopenta[h]isoquinoline-5-sulfonamide] the value was 100 to 2000 nM; for `CCNC(=S)NC1CCc2cc(S(=O)(=O)NCC(C)C)c3cc(C4CC4)ncc3c21` (stereo not shown) [Example 71, 1-[3-cyclopropyl-5-(2-methylpropylsulfamoyl)-8,9-dihydro-7H-cyclopenta[h]isoquinolin-9-yl]-3-ethylthiourea], 100 to 2000 nM.
For `CNC(=O)[C@H]1CCCN1[C@@H]1CCc2c1cc(S(=O)(=O)NCC(C)(C)F)c1cc(C3CC3)ncc21` (relative stereo) [Example 58, (2R)-1-[(7R*)-3-cyclopropyl-5-[(2-fluoro-2-methylpropyl)sulfamoyl]-8,9-dihydro-7H-cyclopenta[h]isoquinolin-7-yl]-N-methylpyrrolidine-2-carboxamide] the value was 100 to 2000 nM; for `CC(C)CNS(=O)(=O)c1cc2c(c3cnc(C4CC4)cc13)C(Nc1ccc(C(=O)O)nc1)CC2` (stereo not shown) [Example 19, 5-[[3-cyclopropyl-5-(2-methylpropylsulfamoyl)-8,9-dihydro-7H-cyclopenta[h]isoquinolin-9-yl]amino]pyridine-2-carboxylic Acid], 100 to 2000 nM; for `CC(C)(F)CNS(=O)(=O)c1cc2c(c3cnc(C4CC4)cc13)CCC2NC1=CC(=O)C1(C)C` (stereo not shown) [Example 60, 3-cyclopropyl-7-[(4,4-dimethyl-3-oxocyclobuten-1-yl)amino]-N-(2-fluoro-2-methylpropyl)-8,9-dihydro-7H-cyclopenta[h]isoquinoline-5-sulfonamide], 100 to 2000 nM.
For `CCNC(=S)NC1CCc2c1cc(S(=O)(=O)NCC(C)C)c1cc(C3CC3)ncc21` (stereo not shown) [Example 51, 1-[3-cyclopropyl-5-(2-methylpropylsulfamoyl)-8,9-dihydro-7H-cyclopenta[h]isoquinolin-7-yl]-3-ethylthiourea], the IC50 fell in the range of 100 to 2000 nM.
For `Cc1cc(-n2cnnc2NC2CCc3c2cc(S(=O)(=O)NCC(C)C)c2cc(C4CC4)ncc32)n(C)n1` (stereo not shown) [Example 88, 3-cyclopropyl-7-[[4-(2,5-dimethylpyrazol-3-yl)-1,2,4-triazol-3-yl]amino]-N-(2-methylpropyl)-8,9-dihydro-7H-cyclopenta[h]isoquinoline-5-sulfonamide] the value was 100 to 2000 nM; for `CCNC1=NS(=O)(=O)N=C1NC1CCc2c1cc(S(=O)(=O)NCC(C)C)c1cc(C3CC3)ncc21` (stereo not shown) [Example 54, 3-cyclopropyl-7-[[4-(ethylamino)-1,1-dioxo-1,2,5-thiadiazol-3-yl]amino]-N-(2-methylpropyl)-8,9-dihydro-7H-cyclopenta[h]isoquinoline-5-sulfonamide], 100 to 2000 nM; for `CC(C)CNS(=O)(=O)c1cc2c(c3cnc(C4CC4)cc13)C(NC(=O)OCc1ccccc1)CC2` (stereo not shown) [Example 44, benzyl N-[3-cyclopropyl-5-(2-methylpropylsulfamoyl)-8,9-dihydro-7H-cyclopenta[h]isoquinolin-9-yl]carbamate], 100 to 2000 nM.
The result for `CC(C)(F)CNS(=O)(=O)c1cc2c(c3cnc(C4CC4)cc13)OCC2O` (stereo not shown) [Example 36, 7-cyclopropyl-N-(2-fluoro-2-methylpropyl)-3-hydroxy-2,3-dihydrofuro[3,2-h]isoquinoline-5-sulfonamide] reads 10 to 50 nM; that for `CCNc1c(NC2CCc3c2cc(S(=O)(=O)NCC(C)C)c2cc(C4CC4)ncc32)c(=O)c1=O` (single isomer, unassigned) [Example 53, (7R*)-3-cyclopropyl-7-[[2-(ethylamino)-3,4-dioxocyclobuten-1-yl]amino]-N-(2-methylpropyl)-8,9-dihydro-7H-cyclopenta[h]isoquinoline-5-sulfonamide], 10 to 50 nM; that for `CC(C)CNS(=O)(=O)c1cc2c(c3cnc(C4CC4)cc13)CCC2Nc1nncn1-c1cccnc1` (stereo not shown) [Example 90, 3-cyclopropyl-N-(2-methylpropyl)-7-[(4-pyridin-3-yl-1,2,4-triazol-3-yl)amino]-8,9-dihydro-7H-cyclopenta[h]isoquinoline-5-sulfonamide], 100 to 2000 nM.
